Details of data set [1]: method as in PMID 35807404. The following applies: after 24 h; cited from earlier work.
Data set [2] can be described thus: Acidity constants (pKa) of the free ligands by pH-dependent 1H NMR. The format is physicochemical. To be noted: water, T = 25 °C. The method, then: (§1) Subsequently, the acid–base properties of NO3S and TACN-n-Bu were appraised. This study is a prior fundamental step before the investigation of complexation equilibria, since the proton represents a competitor of the metal ion for the interaction with the donor sites having Brønsted and Lewis acid–base properties, such as the amines of the TACN scaffold. […] The ionic strength (I) was adjusted using 0.15 M NaNO3. […] Therefore, additional pKa measurements were performed in a 1:1 water/methanol mixture, where no precipitation was detected. The acidity constants of TACN-n-Bu were derived upon analysis of the pH-potentiometric titrations data and pH-dependent ^1H NMR spectra in water (Figure S9B). The acidity constant values of both ligands are gathered in Table 1 along with the values of the unsubstituted macrocycle (i.e., TACN) and the methyl-functionalized one (i.e., 1,4,7-trimethyl-1,4,7-triazacyclonane, TACN-Me) derived from the literature.[30]
However, the chemical shift of all of the other signals manifests a noticeable pH dependence. The most pronounced variation is experienced by the NCH2 protons of the ring, possibly because the deprotonation processes led to a marked relaxation of the ring constraint caused by the H^+−H^+ repulsions. An analogous pH dependency of the chemical shifts is observed for TACN-n-Bu, even if in this case a slowed exchange between the differently protonated forms can be recognized from the enlargement of the signals around pH = pKa,2. The data were fitted, and the corresponding protonation constants (Table 1) were obtained.
Small additions (∼μL) of HNO3 and/or NaOH were used to adjust the pH. The latter was measured as for the potentiometric measurements. Under highly acidic conditions, the pH was computed from the HNO3 concentration (pH = −logCH^+). An excitation sculpting pulse scheme was used to suppress the water signal.[32]
(§2) The thermodynamic data were elaborated with the least-squares fitting program PITMAP as described in our previous works.[22]−[25] […]

Data set [3] in a line: Cyclic voltammetry of the copper complex of NO3S (Cu2+/Cu+ couple); Cu+ stability constant and pCu+. The class given is physicochemical. As for the experimental part: To assess the ability of NO3S to stably bind Cu^+, cyclic voltammetry (CV) analysis was executed. The investigation was performed in aqueous solution at pH ranging from 3 to 12. The obtained cyclic voltammograms, reported in Figure 7, show a peak couple attributable to the quasi-reversible one-electron reduction–oxidation process of the Cu^2+/Cu^+ redox pair (Table S9). No variation of the voltammetric behavior after multiple reduction–oxidation cycles was observed either with time or with the scan rate (except for the increase in the current intensity, i). This outcome is extremely significant because it proves the ability of NO3S to stabilize both copper oxidation states throughout the investigated pH range on the time scale of the CV experiments.
As illustrated in Figure 7 and Table S9, a pH-dependent variation of the cyclic voltammograms was found. […]
Bulk electrolysis of the preformed Cu^2+-NO3S complexes was carried out in a two-compartment cell. […] The electrolysis was performed at a fixed potential equal to E = −0.35 V and monitored by linear scan voltammetry on a rotating disk electrode. […] No variations of the ^1H NMR spectra were detected after 2 days (tubes were stored under a normal atmosphere). […]

Data set [4] in a line: Formation kinetics of Cu2+ complexes by UV-vis spectroscopy (time to reach equilibrium). The format is physicochemical. To be noted: ambient temperature. As for the experimental part: The formation kinetics of the Cu^2+ complexes with NO3S and TACN-n-Bu was qualitatively appraised by UV–vis spectroscopy at ambient temperature and different pH values to explore the time necessary to reach equilibrium. The spectrum of NO3S and TACN-n-Bu as free ligands is also reported for comparison purposes in Figure S15.
The formation kinetics of Cu^2+ complexes with NO3S and TACN-n-Bu was evaluated at different pH values at room temperature using UV–vis spectroscopy as previously reported.[24],[25] Briefly, equimolar amounts of Cu^2+ and the proper ligands were mixed, and the corresponding UV–vis spectra were recorded over time. The final concentrations were CCu^2+ = CL = 1.0 × 10^–4 M. The pH was controlled using the following buffers: HCl 10^–2 M (pH = 2), acetic acid/acetate (pH = 4), and 2-[4-(2-hydroxyethyl)piperazin-1-yl]ethanesulfonic acid (HEPES) (pH = 7.1).

The nature of data set [5]: Acidity constants (pKa) of the free ligands by pH-potentiometric titration. The following applies: T = 25 °C, I = 0.15 M NaNO3. The format is physicochemical. As for the experimental part: as §1
Potentiometric titrations were conducted using an automated titrating system (Metrohm 765 Dosimat) equipped with a combined glass electrode (Hamilton pH 0–14) and a Metrohm 713 pH meter at T = 25 °C under a N2 atmosphere. NaNO3 (0.15 M) was used to fix the ionic strength. Stock solutions of NO3S and TACN-n-Bu were freshly prepared by dissolution of the synthesized compounds (∼10^–3 M). To avoid carbonatation phenomena and facilitate the dissolution, prestandardized HNO3 (CH^+ = 4CL) was coadded to each ligand solution. The solubility of the ligands in water depends on pH: minimal values occur at pH > 12, where the noncharged, totally deprotonated form predominates. All of the titrations were conducted as previously described.[22]−[25] […] Each titration was performed independently, at least in quintuplicate.
as §2

Data set [6] is described as follows: Solubility in water observed during pKa measurements. The format is physicochemical. The following applies: basic pH, precipitate observed. As for the experimental part:
as §1
Potentiometric titrations were conducted using an automated titrating system (Metrohm 765 Dosimat) equipped with a combined glass electrode (Hamilton pH 0–14) and a Metrohm 713 pH meter at T = 25 °C under a N2 atmosphere. NaNO3 (0.15 M) was used to fix the ionic strength. Stock solutions of NO3S and TACN-n-Bu were freshly prepared by dissolution of the synthesized compounds (∼10^–3 M). […]

Data set [7] in a line: Stability constants of Cu2+ complexes by UV-vis spectrophotometric batch titrations; pCu2+ calculation. The class given is physicochemical. The following applies: for pCu^2+ (−log[Cu^2+]free): calculated at CL = 1 × 10^-5 M, CCu2+ = 1 × 10^-6 M, pH 7.4 from stability constants. As for the experimental part: The stability constants (logβ) of the Cu^2+ complexes formed by NO3S and TACN-n-Bu were determined via UV–vis spectrophotometric titrations. Due to both the slow complexation kinetics observed at acidic pH (vide supra) and the high complex stability, batch titrations were conducted and heating was applied to speed up reaching the equilibrium condition.
The stability of the Cu^2+ complexes with TACN-n-Bu was assessed as well to investigate the role of the sulfanyl pendants in metal coordination. The UV–vis spectra recorded at different pH values are shown in Figure 3B, and the variation of the absorbance at λ = 295 nm is reported in Figure S16B. The pCu^2+ values were then computed (Figure 5): being defined as −log[Cu^2+]free, the higher the pCu^2+ value, the greater the stability of the considered metal–ligand complex.[23]−[25]
UV–vis pH-spectrophotometric titrations were carried out as previously reported by means of the out-of-cell method at T = 25 °C and I = 0.15 M NaNO3.[24],[25] Briefly, stock solutions of NO3S or TACN-n-Bu were mixed with Cu(NO3)2 in independent vials at a 1:1 metal-to-ligand ratio (CCu^2+ = CL = 1.0 × 10^–4 M). The pH was adjusted as described in the NMR experiments. The vials were sealed and heated to T = 60 °C in a thermostatic bath to ensure complete complexation and then cooled to ambient temperature. The absorption spectra were recorded, and equilibrium was considered to be reached when no variations in either the pH or the electronic spectra were detected over time.
The thermodynamic data were elaborated with the least-squares fitting program PITMAP as described in our previous works.[22]−[25] All equilibrium constants refer to the overall equilibrium pM^m+ + qH^+ + rL^l– ⇌ MpHqLr^pm+q–rl, where M = Cu^2+ and L = NO3S or TACN-n-Bu, respectively, and are defined as cumulative formation constants (logβpqr = [MpLqHr]/[M]^p[L]^q[H]^r).

Details of data set [8]: method as in Bianchi et al. [30]. To be noted: I = 0.1 M KNO3, T = 25 °C; ref Bianchi et al. [30]; cited from earlier work.
The mark [9] stands for this setting: I = 0.15 M NaNO3, read-out: pKa, H2L^2+ ⇌ H^+ + HL^+.
Setting [10] is: UV-vis spectrophotometric titrations, T = 25 °C, I = 0.15 M NaNO3.

Take `CSCCN1CCN(CCSC)CCN(CCSC)CCN(CCSC)CC1` [DO4S, 1,4,7,10-tetrakis-[2-(methylsulfanyl)ethyl]-1,4,7,10-tetraazacyclododecane]: in data set [1], the “Percentage of intact [64Cu]Cu2+ complex in human serum” value is 20%.
On to `CSCCN1CCN(CCSC)CCN(CCSC)CC1` [NO3S], for which the pKa (usually the pH at which an ionisable group is half protonated) is 2.7 ± 0.02 in data set [2] (setting [9]); 12.72 ± 0.08 in data set [2] (I = 0.15 M NaNO3, read-out: pKa, HL^+ ⇌ H^+ + L); 2.33 ± 0.04 in data set [5] (1:1 water/methanol, pH potentiometry in 1:1 water/methanol, read-out: pKa, H2L^2+ ⇌ H^+ + HL^+); 11.52 ± 0.01 in data set [5] (1:1 water/methanol, pH potentiometry in 1:1 water/methanol, read-out: pKa, HL^+ ⇌ H^+ + L). Moreover, the “pCu^+” value in data set [3] (calculated at CL = 10^-5 M, CCu+ = 10^-6 M, pH = 7.4) is reported as 14.0. Also, in data set [3] (obtained from voltametric data, T = 25 °C, I = 0.15 M NaNO3), the “logβ, Cu^+ + L ⇌ [CuL]^+” value stood at 18.36 ± 0.05. The “Time to reach Cu2+ complexation equilibrium” value is around 14 h in data set [4] (pH = 1.0, equimolar metal-to-ligand 10^-4 M); around 0.167 h in data set [4] (pH = 4.0, equimolar metal-to-ligand 10^-4 M); below 0.017 h in data set [4] (pH = 7.1 (neutral), equimolar metal-to-ligand 10^-4 M). Besides, the “Solubility in water of the completely deprotonated neutral form (L)” value in data set [6] is recorded as “sparingly soluble”. Besides, in data set [7] (setting [10]), the “logβ, Cu^2+ + L + H2O ⇌ [CuL(OH)]^+ + H^+” value is 9.08 ± 0.03. In addition, the “logβ, Cu^2+ + L ⇌ [CuL]^2+” value in data set [7] (setting [10]) is given as 18.41 ± 0.05. The “pCu^2+ (−log[Cu^2+]free)” value in data set [7] is 14.3. Besides, in data set [7] (physiological pH), the “Increase in Cu2+ complex stability (pCu^2+) with respect to TACN-n-Bu” value is recorded as 6 orders of magnitude.
`O=C(O)CN1CCN(CC(=O)O)CCN(CC(=O)O)CC1` [NOTA, 1,4,7-triazacyclononane-1,4,7-triacetic acid, reference compound]: the “pCu^2+ (−log[Cu^2+]free)” value in data set [7] is 18.2.
With `C1CNCCNCCN1` [TACN, 1,4,7-triazacyclononane], in data set [8], the “pKa, H2L^2+ ⇌ H^+ + HL^+” value is recorded as 6.86; the “pKa, H3L^3+ ⇌ H^+ + H2L^2+” value was 2.1; the “pKa, HL^+ ⇌ H^+ + L” value was 10.68.
`CN1CCN(C)CCN(C)CC1` [TACN-Me, 1,4,7-trimethyl-1,4,7-triazacyclonane]: in data set [8], the “pKa, H2L^2+ ⇌ H^+ + HL^+” value is 5.1; the “pKa, H3L^3+ ⇌ H^+ + H2L^2+” value is on record as “–0.4”; the “pKa, HL^+ ⇌ H^+ + L” value was 11.7.
In the case of `CCCCN1CCN(CCCC)CCN(CCCC)CC1` [TACN-n-Bu, 1,4,7-tris-n-butyl-1,4,7-triazacyclononane], the pKa in data set [2] (setting [9]) turned out to be 5.04 ± 0.05; in data set [5] (water, pH potentiometry, read-out: pKa, H2L^2+ ⇌ H^+ + HL^+), 5 ± 0.05. Besides, the “Time to reach Cu2+ complexation equilibrium” value in data set [4] (neutral pH, equimolar metal-to-ligand 10^-4 M) was 8 h. The “logβ, Cu^2+ + HL^+ ⇌ [CuHL]^3+” value in data set [7] (setting [10]) is given as 6.2 ± 0.1. Besides, the “logβ, Cu^2+ + HL^+ ⇌ [CuL]^2+ + H^+” value in data set [7] (setting [10]) was “–0.04 ± 0.15”.

(Values after PMC10731632, “Is Smaller Better? Cu^2+/Cu^+ Coordination Chemistry and Copper-64 Radiochemical Investigation of a 1,4,7-Triazacyclononane-Based Sulfur-Rich Chelator” (Inorganic Chemistry, 2023).)
